According to US8658592B2, “Biologically active peptides and their new uses” (priority 2005, dated 2014):
Marks after values point to notes of the source that are not given here. Ends that are not written are not given here. Peptide text beside a SMILES is read from it.

Key:
[1] = system: human hepatitis B virus (HBV), 2.2.15 cell line; assay: Test 1: inhibition of HBsAg and HBeAg in 2.2.15 cells (ELISA); assay type: cell-based; settings: 400 μg/ml
Protocol: 2.2.15 cells at log phase were harvested and adjusted to 2×10^6/ml with MEM (containing 10% fetal bovine serum, […]). The suspension was inoculated on a 24-well culture plate with 1.5 ml per well, and incubated at 37° C., 5% CO2 for 48 hours for attachment. The peptides were added to the final concentration of 400 μg/ml with 3 parallel wells per sample. One set of blank control (3 wells) was also prepared, in which the peptide was replaced with culture medium. The plate was incubated at 37° C. for 4 days, the culture medium was then exchanged with freshly prepared medium (of the same composition as the original), and the plate was incubated for a further 4 days. By the end of incubation, the supernatants of the culture were collected, and the titers of HBsAg and HBeAg were determined by ELISA method according to the instruction of the detection kit manufacturer.

[2] = system: human hepatitis B virus (HBV), 2.2.15 cell line; assay: Test 2: inhibition of HBV-DNA in 2.2.15 cells (fluorescence quantitative PCR); assay type: cell-based; settings: 160 μg/ml
Protocol: The preparation and incubation of cell suspension was repeated as in test 1 above, but at the peptide concentration of 160 μg/ml.

[3] = system: carrageenin induced foot swelling; assay: carrageenin induced foot swelling in rats; assay type: in vivo, Wistar rats
Protocol: Wistar rats were divided randomly into DXM group (0.2 mg/kg/day), saline control group (1 ml/day), and three dosages of CMS-030 groups (2, 10, 20 μg/ml/day). All of the drugs were diluted to 0.5 ml with saline, and were administered intraperitoneally (i.p) daily. Two weeks after drug administration, 0.15 ml of 1% carrageenin saline solution was applied to the right foot by subcutaneous injection. 0.5 hr later, the circumference of right foot was measured precisely, and foot swelling was calculated by subtracting the pre-challenge circumference from the post-challenge value Inhibition index (%)=(foot swelling of saline control group−foot swelling of drug group)/foot swelling of saline control group×100%.

skin allograft = assay: survival of skin allograft in mice (CMS-014); assay type: in vivo, Balb/c mice (C57BL/6 donors)
Protocol: Half of the mice were male and half were female.
The test substances were dissolved in 0.5 ml saline and intraperitoneally injected for 5 days before the skin transplantation, followed by daily injection until the end point of rejection of the skin graft.
A patch of hair at the back of Balb/c mice was removed by 8% Na2S solution. On the next day, a wound bed of approximately 1 cm^2 was produced by removing the skin surgically, and then a piece of full-thickness tail skin of 1 cm^2 from sex-matched donor C57BL/6J mice was placed onto the wound bed. The surgical site was covered and protected with a layer of paraffin gauze, and a covering plaster was applied. The plaster was removed 6 days after transplantation^[1], and the recipient mice were monitored daily for the viability of the allograft. The end point of rejection was taken as only less than 10% of the allograft remained viable^[2].

[4] = system: duck hepatitis B virus (DHBV); assay: Chongqing duck hepatitis B animal model: serum DHBV DNA and DHBsAg; assay type: in vivo, Chongqing ducks
Protocol: CMS-017 dissolved in saline was applied to Chongqing duck hepatitis B animal model by intramuscular injection for 28 days. The serum levels of DHBV DNA and DHBsAg (duck hepatitis B surface antigen) were observed by serum dot-blot hybridization and ELISA respectively and compared with blank control.
0.1 ml DHBV DNA positive serum (5×10^7 copies/ml) was inoculated into the abdominal cavity of one-day old Chongqing ducks to set up the hepatitis animal model. 10 days after inoculation, blood samples were collected from the external jugular vein and success of infection was confirmed by dot-blot hybridization with DHBV DNA probe labeled with digoxi^[3].
2) CMS-017 group (n=12): 200 μg/kg/day CMS-017 (dissolved in 1 ml normal saline) applied by intramuscular injection, once per day.
The treatment lasted for 4 weeks, and observation continued for another one week after termination of treatment. 1 ml blood samples were drawn from the external jugular vein on days 0, 7, 14, 21, 28, and 35 from the start of treatment. The sera were isolated^[4] and stored at −20° C. until analysis.
DHBV DNA probe was fluorescent-labeled according to the labeling kit protocol from the manufacturer (Roche Co.). Duck sera were dot-blotted (2 dot per sample) onto nitrocellulose membrane and hybridized with fluorescent-labeled probe for DHBV DNA quantitation^[3]. DHBV DNA 40 μl+DHBsAg 100 μl was used as internal standard. CDP-Star fluorimetry reagent was used for amplification of the fluorescence. Vuego Scan (Brisa-620st) scanner was used for film scanning, and Discovery Series Quantity One software for quantitative analysis of the blots. The blot value was described as “volume” (volume=intensity×mm^2)
DHBsAg level was determined by ELISA method^[5-8], and the O.D value was obtained by ELISA reader (Bio-TEK Co.) at 490 nm.

[5] = human hepatitis B virus, 2.2.15 cell line, 48 h
[6] = 0.5 hr after carrageenin, 0.2 mg/kg/d
[7] = Week 5 (one week after termination of treatment)

C[C@H](N)C(=O)N[C@@H](C)C(=O)N[C@@H](Cc1ccccc1)C(=O)O [CMS-023, Ala Ala Phe] (H-Ala-Ala-Phe-OH; N-terminus and C-terminus assumed)
Inhibition ratio to HBeA [1, 5]: 53.7%*
Inhibition ratio to HBsA: [1, 5]: 58.4%*
% HBV-DNA inhibition ([2]; human hepatitis B virus, 2.2.15 cell line): 70.8%*

C[C@@H]1C[C@H]2[C@@H]3CCC4=CC(=O)C=C[C@]4(C)[C@@]3(F)[C@@H](O)C[C@]2(C)[C@@]1(O)C(=O)CO [DXM, Dexamethasone]
Inhibition Index 0.5 hr [3, 6]: 63.0** %
Swelling 0.5 hr [3, 6]: 2.74 ± 0.10 cm
Pre-challenge circumference ([3]; right foot, 0.2 mg/kg/d i.p., two weeks): 2.49 ± 0.05 cm

AAHHPDDFNPSV [CMS-014]
MST (mean survival time of skin allograft) (skin allograft; 125 μg/kg/day i.p.): 10.0 ± 0.5 days
MST (mean survival time of skin allograft) (skin allograft; 250 μg/kg/day i.p.): 9.8 ± 0.5 days
MST (mean survival time of skin allograft) (skin allograft; 500 μg/kg/day i.p.): 9.8 ± 0.4 days

IVTNTT [CMS-017, Ile-Val-Thr-Asn-Thr-Thr]
Inhibition ratio to HBeA ([1]; 2.2.15 cells, 8 days): 62.2%*
Inhibition ratio to HBsA: ([1]; 2.2.15 cells, 8 days): 68.6%*
Serum DHBV DNA titer ([4]; Pre-treatment, 200 μg/kg/day i.m. group): 2207.0 ± 237.5 volume
Serum DHBsAg O.D. value ([4]; Pre-treatment, 200 μg/kg/day i.m. group, 490 nm): 0.928 ± 0.402
Serum DHBV DNA titer ([4]; Week 1, 200 μg/kg/day i.m.): 1991.8 ± 378.9 volume
Serum DHBsAg O.D. value ([4]; Week 1, 200 μg/kg/day i.m.): 0.761 ± 0.328
Serum DHBV DNA titer ([4]; Week 2, 200 μg/kg/day i.m.): 1925.0 ± 549.9 volume
Serum DHBsAg O.D. value ([4]; Week 2, 200 μg/kg/day i.m.): 0.668 ± 0.310
Serum DHBV DNA titer ([4]; Week 3, 200 μg/kg/day i.m.): 1743.9 ± 555.0 volume
Serum DHBsAg O.D. value ([4]; Week 3, 200 μg/kg/day i.m.): 0.551 ± 0.268
Serum DHBV DNA titer ([4]; Week 4, 200 μg/kg/day i.m.): 1544.9 ± 389.7 volume
Serum DHBsAg O.D. value ([4]; Week 4, 200 μg/kg/day i.m.): 0.479 ± 0.279
Serum DHBV DNA titer [4, 7]: 1742.7 ± 437.0 volume
Serum DHBsAg O.D. value [4, 7]: 0.488 ± 0.182
rebound of serum DHBV DNA and DHBsAg ([4]; upon discontinuation of treatment for 7 days): rebound was not observed
% HBV-DNA inhibition ([2]; 2.2.15 cells): 90.8%*
